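How tested: cells in 96-well plates exposed to compound for 48 hours at five concentrations. GI50 = concentration required for 50% inhibition of growth.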 The source made the active and inactive calls. No stated cut-off is given here; in the data, active = GI50 up to about 1.1 µM and inactive = higher.
Tests used:
Assay in all cases: DTP human tumour cell line panel, 48 h
786-0 = test system: 786-0
A498 = test system: A498
A549 = test system: A549
ACHN = test system: ACHN
BT-549 = test system: BT-549
CAKI-1 = test system: CAKI-1
CCRF-CEM = test system: CCRF-CEM
COLO 205 = test system: COLO 205
DU-145 = test system: DU-145
EKVX = test system: EKVX
HCT-116 = test system: HCT-116
HCT-15 = test system: HCT-15
HL-60 = test system: HL-60
HOP-62 = test system: HOP-62
HOP-92 = test system: HOP-92
HT-29 = test system: HT-29
Hs-578T = test system: Hs-578T
IGROV-1 = test system: IGROV-1
K562 = test system: K562
KM12 = test system: KM12
LOX IMVI = test system: LOX IMVI
M14 = test system: M14
MCF7 = test system: MCF7
MDA-MB-231 = test system: MDA-MB-231
MDA-MB-435 = test system: MDA-MB-435
MDA-N = test system: MDA-N
Malme-3M = test system: Malme-3M
NCI-H226 = test system: NCI-H226
NCI-H23 = test system: NCI-H23
NCI-H460 = test system: NCI-H460
NCI-H522 = test system: NCI-H522
NCI/ADR-RES = test system: NCI/ADR-RES
OVCAR-3 = test system: OVCAR-3
OVCAR-4 = test system: OVCAR-4
OVCAR-5 = test system: OVCAR-5
OVCAR-8 = test system: OVCAR-8
PC-3 = test system: PC-3
RPMI-8226 = test system: RPMI-8226
RXF 393 = test system: RXF 393
SF-268 = test system: SF-268
SF-295 = test system: SF-295
SK-MEL-28 = test system: SK-MEL-28
SK-MEL-2 = test system: SK-MEL-2
SK-MEL-5 = test system: SK-MEL-5
SK-OV-3 = test system: SK-OV-3
SN12C = test system: SN12C
SNB-19 = test system: SNB-19
SNB-75 = test system: SNB-75
SR = test system: SR
SW-620 = test system: SW-620
T47D = test system: T47D
TK-10 = test system: TK-10
U-251 = test system: U-251
UACC-257 = test system: UACC-257
UACC-62 = test system: UACC-62
UO-31 = test system: UO-31
MOLT-4 = test system: MOLT-4
SF-539 = test system: SF-539
HCC 2998 = test system: HCC 2998

Measured: GI50

NCCNc1ncnc2ccc(Cl)cc12
inactive: 786-0 > 100 µM | A498 37.9 µM | A549 93.8 µM | ACHN 66.4 µM | BT-549 > 100 µM | CAKI-1 > 100 µM | CCRF-CEM > 100 µM | COLO 205 49.3 µM | DU-145 > 100 µM | EKVX > 100 µM | HCT-116 67.8 µM | HL-60 > 100 µM | HOP-62 > 100 µM | HOP-92 93.5 µM | HT-29 66.8 µM | Hs-578T > 100 µM | IGROV-1 49.9 µM | K562 > 100 µM | KM12 > 100 µM | LOX IMVI > 100 µM | M14 > 100 µM | MCF7 96.8 µM | MDA-MB-231 93.1 µM | MDA-MB-435 > 100 µM | MDA-N 99.1 µM | Malme-3M > 100 µM | NCI-H226 > 100 µM | NCI-H23 > 100 µM | NCI-H460 32.8 µM | NCI-H522 57.7 µM | NCI/ADR-RES > 100 µM | OVCAR-3 > 100 µM | OVCAR-4 > 100 µM | OVCAR-5 > 100 µM | OVCAR-8 74.1 µM | PC-3 75.5 µM | RPMI-8226 96.2 µM | RXF 393 > 100 µM | SF-268 81.1 µM | SF-295 > 100 µM | SK-MEL-28 > 100 µM | SK-MEL-2 > 100 µM | SK-MEL-5 > 100 µM | SK-OV-3 > 100 µM | SN12C 88.5 µM | SNB-19 > 100 µM | SNB-75 97.5 µM | SR 45.7 µM | SW-620 72.3 µM | T47D > 100 µM | TK-10 28.6 µM | U-251 > 100 µM | UACC-257 36 µM | UACC-62 93.5 µM | UO-31 97.3 µM
> 100 µM: HCT-15

CCCC1C(=O)Nc2cccc3ncn(c23)C1=O (stereo not given)
> 100 µM: HCT-15
inactive: 786-0 > 100 µM | A498 > 100 µM | A549 > 100 µM | ACHN > 100 µM | BT-549 > 100 µM | CAKI-1 > 100 µM | CCRF-CEM > 100 µM | COLO 205 > 100 µM | DU-145 > 100 µM | EKVX > 100 µM | HCT-116 > 100 µM | HL-60 > 100 µM | HOP-62 > 100 µM | HOP-92 > 100 µM | HT-29 > 100 µM | Hs-578T > 100 µM | IGROV-1 > 100 µM | K562 > 100 µM | KM12 > 100 µM | M14 > 100 µM | MCF7 > 100 µM | MDA-MB-231 > 100 µM | MDA-MB-435 > 100 µM | MDA-N > 100 µM | MOLT-4 > 100 µM | Malme-3M > 100 µM | NCI-H226 > 100 µM | NCI-H23 > 100 µM | NCI-H460 > 100 µM | NCI/ADR-RES > 100 µM | OVCAR-3 > 100 µM | OVCAR-4 > 100 µM | OVCAR-5 > 100 µM | OVCAR-8 > 100 µM | PC-3 > 100 µM | RPMI-8226 > 100 µM | RXF 393 > 100 µM | SF-268 > 100 µM | SF-295 > 100 µM | SF-539 > 100 µM | SK-MEL-28 > 100 µM | SK-MEL-2 > 100 µM | SK-MEL-5 > 100 µM | SK-OV-3 > 100 µM | SN12C > 100 µM | SNB-19 > 100 µM | SNB-75 28.8 µM | SR > 100 µM | SW-620 > 100 µM | T47D > 100 µM | U-251 > 100 µM | UACC-257 > 100 µM | UACC-62 > 100 µM | UO-31 > 100 µM

Cn1c(=O)n2c(=O)n(C)c(=O)n2c1=O
> 100 µM: HCT-15
inactive: 786-0 > 100 µM | A498 > 100 µM | A549 > 100 µM | BT-549 > 100 µM | CAKI-1 > 100 µM | CCRF-CEM > 100 µM | COLO 205 > 100 µM | DU-145 > 100 µM | EKVX > 100 µM | HCC 2998 > 100 µM | HCT-116 91.8 µM | HL-60 > 100 µM | HT-29 > 100 µM | Hs-578T > 100 µM | IGROV-1 > 100 µM | K562 > 100 µM | KM12 > 100 µM | LOX IMVI > 100 µM | M14 > 100 µM | MCF7 > 100 µM | MDA-MB-231 > 100 µM | MDA-MB-435 > 100 µM | MDA-N > 100 µM | MOLT-4 > 100 µM | Malme-3M > 100 µM | NCI-H226 > 100 µM | NCI-H23 > 100 µM | NCI-H460 > 100 µM | NCI-H522 > 100 µM | NCI/ADR-RES > 100 µM | OVCAR-3 > 100 µM | OVCAR-4 > 100 µM | OVCAR-5 > 100 µM | OVCAR-8 > 100 µM | PC-3 > 100 µM | RPMI-8226 > 100 µM | RXF 393 > 100 µM | SF-268 > 100 µM | SF-539 > 100 µM | SK-MEL-28 > 100 µM | SK-MEL-2 > 100 µM | SK-MEL-5 > 100 µM | SK-OV-3 > 100 µM | SN12C > 100 µM | SNB-19 > 100 µM | SNB-75 > 100 µM | SR > 100 µM | SW-620 > 100 µM | T47D > 100 µM | TK-10 > 100 µM | U-251 > 100 µM | UACC-257 > 100 µM | UACC-62 > 100 µM | UO-31 > 100 µM

CC(C)(C(=O)NN)c1ccccc1
inactive: 786-0 > 100 µM | A498 > 100 µM | A549 > 100 µM | ACHN > 100 µM | BT-549 > 100 µM | CAKI-1 > 100 µM | CCRF-CEM > 100 µM | COLO 205 > 100 µM | DU-145 > 100 µM | EKVX 34.6 µM | HCC 2998 > 100 µM | HCT-116 > 100 µM | HL-60 > 100 µM | HOP-62 > 100 µM | HOP-92 > 100 µM | HT-29 > 100 µM | Hs-578T > 100 µM | IGROV-1 8.79 µM | K562 > 100 µM | KM12 42.3 µM | LOX IMVI 7.91 µM | M14 > 100 µM | MCF7 > 100 µM | MDA-MB-231 > 100 µM | MDA-MB-435 86.5 µM | MDA-N 42.4 µM | MOLT-4 > 100 µM | Malme-3M > 100 µM | NCI-H23 > 100 µM | NCI-H460 37.2 µM | NCI-H522 56.2 µM | NCI/ADR-RES > 100 µM | OVCAR-3 > 100 µM | OVCAR-5 > 100 µM | OVCAR-8 > 100 µM | PC-3 > 100 µM | RPMI-8226 84.1 µM | SF-268 45.3 µM | SF-295 33.7 µM | SF-539 42.2 µM | SK-MEL-28 > 100 µM | SK-MEL-2 21.6 µM | SK-MEL-5 > 100 µM | SK-OV-3 > 100 µM | SN12C > 100 µM | SNB-19 > 100 µM | SNB-75 > 100 µM | SR > 100 µM | SW-620 33 µM | T47D > 100 µM | TK-10 > 100 µM | U-251 > 100 µM | UACC-257 > 100 µM | UACC-62 19.3 µM | UO-31 76.6 µM
> 100 µM: HCT-15

Oc1ccc(Cl)cc1/C=N/c1cnc2ccccc2c1
4.4 µM: HCT-15
inactive: 786-0 37.9 µM | A498 > 100 µM | A549 > 92.7 µM | ACHN > 57.1 µM | BT-549 22.3 µM | CAKI-1 > 100 µM | CCRF-CEM 1.52 µM | COLO 205 53.8 µM | DU-145 41.5 µM | EKVX 29.7 µM | HCT-116 11.3 µM | HL-60 4.56 µM | HOP-62 35.5 µM | HOP-92 28.1 µM | HT-29 36.6 µM | Hs-578T > 68.9 µM | IGROV-1 16 µM | K562 10.2 µM | KM12 30.6 µM | LOX IMVI 8.17 µM | M14 16.9 µM | MCF7 22.6 µM | MDA-MB-231 32.6 µM | MDA-MB-435 36.7 µM | MDA-N 34.7 µM | MOLT-4 2.84 µM | Malme-3M > 70.6 µM | NCI-H226 55.2 µM | NCI-H23 33.9 µM | NCI-H460 33.7 µM | NCI-H522 > 86.7 µM | NCI/ADR-RES 27.7 µM | OVCAR-3 14.5 µM | OVCAR-4 27.4 µM | OVCAR-5 > 100 µM | OVCAR-8 27 µM | PC-3 14.3 µM | RPMI-8226 13.1 µM | RXF 393 > 100 µM | SF-268 29.1 µM | SF-295 36.7 µM | SF-539 13.4 µM | SK-MEL-28 > 68.9 µM | SK-MEL-2 27.2 µM | SK-MEL-5 27.5 µM | SK-OV-3 33.3 µM | SN12C 30.3 µM | SNB-19 29 µM | SNB-75 33.1 µM | SR 18.8 µM | SW-620 24.8 µM | T47D 4.81 µM | TK-10 > 100 µM | U-251 11.9 µM | UACC-257 5.01 µM | UACC-62 32.7 µM | UO-31 45.6 µM

From ChEMBL document CHEMBL1201862, “PubChem BioAssay data set” (2004)
